For experiment [1], the system named is brain cancer cell (glioma) U118. As to the kind of experiment: Brain cancer (glioma) U118 cell growth. It counts as cell-based. Conditions: 72 hours of incubation. Summed up:
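Cell counts taken with compound, mean of three independent experiments. Applies to U118.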

In another experiment the test system is lung cancer cells A549. As to the kind of experiment: Growth of lung cancer cells A549 (IC50). In kind it is cell-based, human. Conditions: 72 hours of incubation. Summed up: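 Cell counts taken with compound, mean of three independent experiments. Applies to A549 (RPMI 1640, 10% FBS, 37 °C, 5% CO2).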
The subject of experiment [2] is Spontaneously Hypertensive Rats (SHR). As to the kind of experiment: Blood pressure of SHR rats (cuff-tail method). It counts as in vivo, rat. The note with it: 200 mg/kg day p.o., 30 days, before treatment 214 mmHg. In short, it runs like this: (§1)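 SHR rats dosed orally at 200 mg/kg day for 30 days against water vehicle. At study end, blood pressure taken non-invasively by tail cuff and apoA-I assessed as gene expression by RT-PCR.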

The test system of experiment [3] is apolipoprotein AI (apoA-I). As to the kind of experiment: Levels of apoA-I in SHR rats (RT-PCR). It counts as in vivo, rat. Conditions: 200 mg/kg day p.o., 30 days, before treatment 100%. Summed up: as §1
A further experiment relates to α-synuclein. As to the kind of experiment: Expression of α-synuclein in neuronal cultures (cells P19). In kind it is cell-based. Conditions: untreated cells 100%.
In the next experiment the test system is COX-2. As to the kind of experiment: Expression of COX-2 in LPS-stimulated monocytes in culture. In kind it is cell-based, human. Conditions: positive control with LPS 100%. In short, it runs like this: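 Cultured monocytes stimulated with LPS; COX-2 protein level expressed as % inhibition relative to the LPS-only positive control (100%).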
In another experiment the test system is TNF-α. As to the kind of experiment: Production of TNF-α in serum of LPS-injected C57BL6/J mice. In kind it is in vivo. The note with it: LPS 20 μg i.p. (100%), 200 mg/kg p.o. In short, it runs like this: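 C57BL6/J mice given intraperitoneal LPS (20 μg) to induce inflammation, then dosed orally with derivatives at 200 mg/kg. Serum TNF-α measured.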
The next experiment has as its system B6 healthy mice. As to the kind of experiment: Radial maze in control animals (B6 healthy mice). Conditions: 20 mg/kg daily po, 3 months. In kind it is in vivo. As to the method: To test the efficacy of the compounds of the present invention to induce neuroregeneration or inhibit neurodegeneration, an animal model of Alzheimer's disease was used. In this model mice develop neurodegeneration because they express a series of mutant proteins that lead to brain damage (Alzh mice). B6 mice were used as healthy animal controls. Both groups of animals were treated for a period of 3 months with vehicle (water) or with various D-PUFA (20 mg/kg, daily po) since they were an age of 3 months. To determine whether cognitive improvement occurred after treatment, animal behaviour was monitored in the radial maze. The animals are kept on restricted diet to have appetite. In a symmetrical 8-arm radial maze, visual marks were placed to facilitate the orientation of the animal and food (15 mg tablet) was put in four of the arms. The time each animal took to complete the exercise, and the number of errors, were measured using a camera attached to a computer system. In this sense, Alzheimer animals have values about 50% higher than healthy animals, both by the time it takes to perform the exercise and by the number of errors made (FIG. 4B). […] In this regard, the effectiveness of the compound 183B1, 205A1, 205B1, 226A1, 226 V1 was also tested, showing improvements in animals with Alzheimer's disease (times of 98, 92, 93, 86 and 89 seconds, respectively). On the other hand, it is also interesting that these same compounds (183B1, 205A1, 205B1, 226A1, 226B1 and 226V1) also produced reductions in the times taken to complete the experiment in control animals (B6 healthy mice) of 8s, 11s, 12s, 18s, 16s and 14s, respectively. Therefore, it may be concluded that these compounds have significant activity against neurodegeneration and in neuroregeneration.

As to `CCC=CCC=CCC=CCCCCCCC(O)C(=O)[O-].[Na+]` (centres unmarked) [183B1], the results for the IC50 (in experiment [1]; in the experiment on lung cancer cells A549) were 202 µM and 195 µM, respectively. In addition, the Blood pressure in experiment [2] was found to be 197 mm Hg. The “Levels of apoA-I” value in experiment [3] came out at 151%. In the experiment on α-synuclein, the “Expression of α-synuclein” value came to 43%. Besides, the “COX-2 protein levels (expression), percentages of inhibition compared to positive control” value in the experiment with COX-2 is reported as 33%. Moreover, the “Production of TNF-α in serum” value in the experiment with TNF-α was 81%. Besides, the “Reduction in the time taken to complete the experiment” value (“Reduction in the time taken” below) in the experiment on B6 healthy mice is 8 s.
Regarding `CCC=CCC=CCC=CCC=CCC=CCC=CCC(O)C(=O)O` (centres unmarked) [226A1], the IC50 in experiment [1] turned out to be 214 µM; in the experiment with lung cancer cells A549, 195 µM. Further, the Blood pressure in experiment [2] was 194 mm Hg. Also, in experiment [3], the “Levels of apoA-I” value is 324%. The “Expression of α-synuclein” value in the experiment with α-synuclein is 23%. Also, in the experiment with COX-2, the “COX-2 protein levels (expression), percentages of inhibition compared to positive control” value amounted to 23%. Moreover, in the experiment with TNF-α, the “Production of TNF-α in serum” value turned out to be 73%. In addition, the “Reduction in the time taken” value in the experiment on B6 healthy mice is given as 18 s.
`CCC=CCC=CCC=CCC=CCC=CCCC(O)C(=O)O` (centres unmarked) [205A1, 2-hydroxy-5,8,11,14,17-eicosapentaenoic acid]: the IC50 stood at 400 µM in experiment [1] and 394 µM in the experiment on lung cancer cells A549 (Homo sapiens, A549). Further, the Blood pressure in experiment [2] worked out at 193 mm Hg. Also, the “Levels of apoA-I” value in experiment [3] turned out to be 346%. Besides, in the experiment on α-synuclein, the “Expression of α-synuclein” value is listed as 35%. Besides, the “COX-2 protein levels (expression), percentages of inhibition compared to positive control” value in the experiment with COX-2 worked out at 31%. Further, in the experiment on TNF-α, the “Production of TNF-α in serum” value amounted to 56%. The “Reduction in the time taken” value with B6 healthy mice worked out at 11 s.
Regarding `CCC=CCC=CCC=CCC=CCC=CCCC(O)C(=O)[O-].[Na+]` (centres unmarked) [205B1], the IC50 in experiment [1] amounted to 391 µM; with lung cancer cells A549, 202 µM. Moreover, the Blood pressure in experiment [2] turned out to be 187 mm Hg. For the same compound, in experiment [3], the “Levels of apoA-I” value is listed as 264%. The “Expression of α-synuclein” value in the experiment with α-synuclein was determined as 41%. Further, the “COX-2 protein levels (expression), percentages of inhibition compared to positive control” value with COX-2 worked out at 39%. Further, the “Production of TNF-α in serum” value in the experiment on TNF-α came to 69%. Moreover, in the experiment with B6 healthy mice, the “Reduction in the time taken” value amounted to 12 s.
